Measured values: PubChem BioAssay (NCI)
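The compound was tested at five concentrations on cells cultured in 96-well plates, with a 48-hour exposure period. GI50 is the concentration that inhibits growth by half. TGI: total growth inhibition.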

Legend:
Test in all cases: inhibition of tumour cell growth, NCI panel, 48 h
SK-MEL-2 melanoma = system: SK-MEL-2 melanoma
SNB-19 CNS = system: SNB-19 CNS
HOP-92 NSCLC = system: HOP-92 NSCLC
UACC-257 melanoma = system: UACC-257 melanoma
UO-31 renal = system: UO-31 renal
PC-3 prostate = system: PC-3 prostate
MDA-N = system: MDA-N
SK-OV-3 ovarian = system: SK-OV-3 ovarian
MDA-MB-231 breast = system: MDA-MB-231 breast
COLO 205 colon = system: COLO 205 colon

Row | Structure (SMILES) | TGI (SK-MEL-2 melanoma) | TGI (SNB-19 CNS) | TGI (HOP-92 NSCLC) | TGI (UACC-257 melanoma) | TGI (UO-31 renal) | TGI (PC-3 prostate) | TGI (MDA-N) | TGI (SK-OV-3 ovarian) | TGI (MDA-MB-231 breast) | TGI (COLO 205 colon) | GI50 (SK-MEL-2 melanoma) | GI50 (SNB-19 CNS) | GI50 (UACC-257 melanoma) | GI50 (UO-31 renal) | GI50 (SK-OV-3 ovarian) | GI50 (COLO 205 colon) | GI50 (HOP-92 NSCLC) | GI50 (MDA-N) | GI50 (MDA-MB-231 breast) | GI50 (PC-3 prostate)
1 | N#C/C=C1\C=CC(O)C(O)C1OC1OC(CO)C(O)C(O)C1O (stereo unspecified) | > 100 µM | > 100 µM | > 100 µM | > 100 µM | > 100 µM | > 100 µM | > 100 µM | > 100 µM | > 100 µM | > 100 µM |  |  |  |  |  |  |  |  |  | 
2 | O=S(=O)(c1ccc(I)cc1)N(c1ccccc1)S(=O)(=O)C(F)(F)C(F)(F)C(F)(F)C(F)(F)F | 90.6 µM | > 100 µM | 42 µM | > 100 µM | > 100 µM | > 100 µM | > 100 µM | 74 µM | > 100 µM | > 100 µM |  |  |  |  |  |  |  |  |  | 
3 | O=S(=O)(O)c1c(N=Nc2c(O)ccc3ccccc23)ccc2ccccc12 | > 100 µM | > 100 µM | > 100 µM | > 100 µM | > 100 µM | > 100 µM | > 100 µM | > 100 µM | > 100 µM | > 100 µM |  |  |  |  |  |  |  |  |  | 
4 | O=C(O)C1CC(c2ccccc2)=NN1c1ccccc1 (stereo unspecified) | > 100 µM | > 100 µM | > 100 µM | > 100 µM | > 100 µM | > 100 µM | > 100 µM | > 100 µM | > 100 µM | > 100 µM |  |  |  |  |  |  |  |  |  | 
5 | COc1cccc(-c2nc3c(C(=O)NCCN(C)C)cccc3[nH]2)c1 | 34.4 µM | > 100 µM | 46.7 µM | 31.3 µM | 29.1 µM |  |  | 69.5 µM |  | 23.1 µM |  |  |  |  |  |  |  |  |  | 
6 | O=C1/C(=C\c2ccc(-c3ccc(Cl)cc3Cl)o2)SC2N=C(COc3ccc(Cl)cc3)NN12 (stereo unspecified) | > 100 µM | > 100 µM | > 100 µM | 74.4 µM | > 100 µM | > 100 µM | > 100 µM | > 100 µM | > 100 µM | > 100 µM |  |  |  |  |  |  |  |  |  | 
7 | S=C1N(c2ccc(Cl)cc2)C2=C(N=Nc3ccccc3)C(=Nc3ccccc3S2)N1c1ccccn1 |  | 28.3 µM | 49.6 µM | 30.4 µM | 21.7 µM | 27.6 µM | 30.1 µM | 31.6 µM | 25.4 µM | 25.2 µM |  |  |  |  |  |  |  |  |  | 
8 | [C-]#[O+].[C-]#[O+].[Ir].[O-]c1cccc2cccnc12 | > 100 µM | > 100 µM |  | > 100 µM | > 100 µM |  |  | > 100 µM |  | > 100 µM | > 100 µM | > 100 µM | > 100 µM | > 100 µM | > 100 µM | > 100 µM |  |  |  | 
9 | O=S(O)c1cc(Cl)cc(Cl)c1O | > 100 µM | > 100 µM |  | > 100 µM | > 100 µM |  |  | > 100 µM |  |  |  |  |  |  |  |  |  |  |  | 
10 | COc1ccc(SC(C)(SC)c2ccccn2)c(OC)n1 (stereo unspecified) | > 100 µM | > 100 µM | > 100 µM | > 100 µM | > 100 µM | > 100 µM | > 100 µM |  | > 100 µM | > 100 µM |  |  |  |  |  |  |  |  |  | 
11 | Oc1cc2cccc[n+]2c2cccc(Cl)c12 |  |  | 71.5 µM | 48.4 µM | 93 µM |  | 33.5 µM |  |  | 87.3 µM |  | 92.3 µM | 21.7 µM | 31.3 µM |  | 26.3 µM | 15.8 µM | 16.9 µM | 91.5 µM | 
12 | c1ccc2sc(C3(N4CCCCC4)CCCC3)cc2c1 |  | 29.2 µM | 25.4 µM | 29.7 µM | 33.8 µM |  | 35.1 µM | 31.4 µM |  | 19.8 µM |  |  |  |  |  |  |  |  |  | 
13 | CC1(C)COC(/C=C/C2=NC(C)(C)CO2)=N1 | 82.9 µM | > 100 µM | 84.1 µM | > 100 µM | 64.3 µM | 51.7 µM | 48.7 µM | > 100 µM | 44.2 µM | 28.6 µM |  |  |  |  |  |  |  |  |  | 
14 | O=C1c2ccccc2-c2ccc(N=[N+]([O-])c3ccc4c(c3)C(=O)c3ccccc3-4)cc21 | > 100 µM | > 100 µM | > 100 µM | > 100 µM | > 100 µM | > 100 µM | > 100 µM | > 100 µM | > 100 µM | > 100 µM |  |  |  |  |  |  |  |  |  | 
15 | CC(O)C(O)C(N)CC=O (stereo unspecified) | > 500 µM | > 500 µM | > 500 µM | > 500 µM | > 500 µM |  |  | > 500 µM |  | > 500 µM |  |  |  |  |  |  |  |  |  | 
16 | COC(=O)C1=CC[C@@H]2C(C(=O)O)=CO[C@@H](OC3OC(CO)C(O)C(O)C3O)[C@H]12 (stereo partly specified) | > 300 µM | > 300 µM | > 127 µM | > 300 µM | > 300 µM |  |  | > 300 µM |  | > 300 µM |  |  |  |  |  |  |  |  |  | 
17 | O=C(/C=C/c1ccc(O)cc1)NCCc1ccc(O)cc1 | > 12.5 µM | > 12.5 µM | > 12.5 µM | > 12.5 µM | > 12.5 µM | > 12.5 µM | > 12.5 µM |  | > 12.5 µM | > 12.5 µM |  |  |  |  |  |  |  |  |  | 
18 | CC(=O)OCC1OC(O[C@@H]2c3c(O)c4c(c(O)c3C3=C(NN(c5ccc([N+](=O)[O-])cc5[N+](=O)[O-])[Se]3=O)[C@@]2(C)O)C(=O)c2ccccc2C4=O)C(OC(C)=O)C(OC(C)=O)C1OC(C)=O (stereo partly specified) | 0.615 µM |  | 2.05 µM | 1.49 µM | 0.548 µM | 1.02 µM | 0.753 µM | 1.52 µM | 1.48 µM | 0.322 µM |  |  |  |  |  |  |  |  |  | 
19 | CN(C)Cc1ccc(C(=O)Nc2ccc3ncnc(Nc4ccc(Oc5cccc(F)c5)c(Cl)c4)c3c2)cc1 |  | 3.09 µM | 2.44 µM |  | 2.59 µM |  |  |  | 3.12 µM |  |  | 1.66 µM |  | 1.3 µM |  |  | 1.09 µM |  | 1.65 µM | 
20 | C[N+]1(C)CCC(C#N)(c2ccccc2)CC1 |  | > 100 µM | > 100 µM | > 100 µM | > 100 µM |  | > 100 µM | > 100 µM |  | > 100 µM |  |  |  |  |  |  |  |  |  | 
21 | CC(C)C(N=Cc1ccccc1O)C(=O)O (stereo unspecified) | > 100 µM | > 100 µM | > 100 µM | > 100 µM | > 100 µM | > 100 µM | > 100 µM | > 100 µM | > 100 µM | > 100 µM |  |  |  |  |  |  |  |  |  | 
22 | Fc1ccc(-c2ccc(-c3nnc(-c4cc(F)c(Cl)cc4Cl)o3)o2)cc1Cl | > 100 µM | > 100 µM | > 100 µM | > 100 µM | > 100 µM | > 100 µM |  | > 100 µM | > 100 µM | 42.8 µM | 54.8 µM | 25.4 µM | 46.1 µM | 34.7 µM | 41.2 µM | 18.8 µM | 38.5 µM |  | 29.7 µM | 36.9 µM
